For one compound, inhibition, IC50 and Ki results are on record in ChEMBL document CHEMBL1133958, “Derivatives of (2R,3R,4S)-2-aminomethylpyrrolidine-3,4-diol are selective alpha-mannosidase inhibitors” (Bioorg Med Chem Lett, 2001).

Assay [1] can be described thus: Percentage inhibition of Beta-galactosidase from Jack bean at 1 mM concentration. Conditions: Canavalia ensiformis.
The nature of assay [2]: Inhibitory activity towards Alpha-glucosidase from Baker yeast (isomaltase). Also on record: species or system Saccharomyces cerevisiae.
The subject of assay [3] is Saccharomyces cerevisiae. The experiment in a line: Percentage inhibition of Alpha-glucosidase from Yeast (maltase) at 1 mM.
In assay [4] the test system is Alpha-mannosidase (Prunus dulcis). Nature of the assay: Percentage inhibition of Alpha-mannosidase from Almond at 1 mM.
A short description of assay [5]: Percentage inhibition of Beta-galactosidase from Aspergillus oryzae at 1 mM; No inhibition.
For the next assay, the target named is T1, Beta-galactosidase (Bos taurus, UniProt Q58D55).
T1 sequence (Q58D55 whole entry): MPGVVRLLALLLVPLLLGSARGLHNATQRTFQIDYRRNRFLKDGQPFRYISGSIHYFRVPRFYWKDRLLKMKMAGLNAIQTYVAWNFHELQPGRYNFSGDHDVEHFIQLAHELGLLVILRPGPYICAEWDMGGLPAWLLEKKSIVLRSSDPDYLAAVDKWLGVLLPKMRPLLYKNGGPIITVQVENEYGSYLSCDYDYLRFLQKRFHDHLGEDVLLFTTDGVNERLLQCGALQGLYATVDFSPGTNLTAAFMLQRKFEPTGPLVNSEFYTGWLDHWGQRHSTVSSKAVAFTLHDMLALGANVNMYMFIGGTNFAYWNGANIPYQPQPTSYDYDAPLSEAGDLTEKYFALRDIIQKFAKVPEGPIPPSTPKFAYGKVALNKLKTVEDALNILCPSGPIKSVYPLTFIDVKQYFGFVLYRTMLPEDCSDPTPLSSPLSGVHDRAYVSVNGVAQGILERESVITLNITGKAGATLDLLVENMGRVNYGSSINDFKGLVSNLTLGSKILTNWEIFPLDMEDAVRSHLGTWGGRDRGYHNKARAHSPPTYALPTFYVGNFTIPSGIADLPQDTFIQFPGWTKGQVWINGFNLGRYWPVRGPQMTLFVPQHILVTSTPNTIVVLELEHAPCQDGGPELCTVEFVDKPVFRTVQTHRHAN
The experiment in a line: Inhibitory activity towards Beta-galactosidase from Bovine liver.

The target of assay [6] is T2, Beta-galactosidase (Aspergillus niger) (UniProt P29853).
T2 sequence (whole entry): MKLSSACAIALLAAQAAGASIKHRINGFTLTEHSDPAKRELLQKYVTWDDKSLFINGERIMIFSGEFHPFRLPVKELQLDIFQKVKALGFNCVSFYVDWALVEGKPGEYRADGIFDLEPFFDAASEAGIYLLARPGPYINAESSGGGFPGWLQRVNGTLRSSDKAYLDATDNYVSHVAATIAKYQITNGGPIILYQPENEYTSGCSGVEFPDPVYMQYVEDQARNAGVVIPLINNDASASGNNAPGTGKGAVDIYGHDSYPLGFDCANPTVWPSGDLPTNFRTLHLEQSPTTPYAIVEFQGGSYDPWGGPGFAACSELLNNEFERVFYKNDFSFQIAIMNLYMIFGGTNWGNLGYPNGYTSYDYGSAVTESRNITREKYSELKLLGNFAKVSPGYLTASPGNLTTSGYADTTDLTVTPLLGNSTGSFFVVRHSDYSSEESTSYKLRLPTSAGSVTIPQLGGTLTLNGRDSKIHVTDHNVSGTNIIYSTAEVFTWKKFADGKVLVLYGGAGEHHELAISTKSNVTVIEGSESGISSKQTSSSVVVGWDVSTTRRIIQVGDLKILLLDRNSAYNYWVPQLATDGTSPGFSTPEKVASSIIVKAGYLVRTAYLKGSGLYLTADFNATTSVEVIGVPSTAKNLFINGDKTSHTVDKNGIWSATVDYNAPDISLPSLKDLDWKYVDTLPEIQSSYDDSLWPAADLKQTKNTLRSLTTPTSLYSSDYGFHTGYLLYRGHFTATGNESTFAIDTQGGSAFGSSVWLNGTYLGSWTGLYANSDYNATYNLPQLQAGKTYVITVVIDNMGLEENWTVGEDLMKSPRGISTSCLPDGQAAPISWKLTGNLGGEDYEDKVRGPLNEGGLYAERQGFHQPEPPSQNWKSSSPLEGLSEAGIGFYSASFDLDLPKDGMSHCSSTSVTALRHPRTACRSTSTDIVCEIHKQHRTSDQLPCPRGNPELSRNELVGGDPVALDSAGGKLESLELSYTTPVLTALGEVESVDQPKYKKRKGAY
Nature of the assay: Percentage inhibition of Beta-galactosidase from Aspergillus niger at 1 mM concentration; […].

Assay [7] is described as follows: Inhibitory activity towards Alpha-glucosidase from Yeast (maltase). Also on record: species or system Saccharomyces cerevisiae.
The target in assay [8] is Beta-galactosidase (Escherichia coli K-12) (UniProt P00722). The experiment in a line: Percentage inhibition of Beta-galactosidase from Escherichia coli at 1 mM concentration.
Beta-galactosidase (Escherichia coli K-12), sequence (P00722 whole entry): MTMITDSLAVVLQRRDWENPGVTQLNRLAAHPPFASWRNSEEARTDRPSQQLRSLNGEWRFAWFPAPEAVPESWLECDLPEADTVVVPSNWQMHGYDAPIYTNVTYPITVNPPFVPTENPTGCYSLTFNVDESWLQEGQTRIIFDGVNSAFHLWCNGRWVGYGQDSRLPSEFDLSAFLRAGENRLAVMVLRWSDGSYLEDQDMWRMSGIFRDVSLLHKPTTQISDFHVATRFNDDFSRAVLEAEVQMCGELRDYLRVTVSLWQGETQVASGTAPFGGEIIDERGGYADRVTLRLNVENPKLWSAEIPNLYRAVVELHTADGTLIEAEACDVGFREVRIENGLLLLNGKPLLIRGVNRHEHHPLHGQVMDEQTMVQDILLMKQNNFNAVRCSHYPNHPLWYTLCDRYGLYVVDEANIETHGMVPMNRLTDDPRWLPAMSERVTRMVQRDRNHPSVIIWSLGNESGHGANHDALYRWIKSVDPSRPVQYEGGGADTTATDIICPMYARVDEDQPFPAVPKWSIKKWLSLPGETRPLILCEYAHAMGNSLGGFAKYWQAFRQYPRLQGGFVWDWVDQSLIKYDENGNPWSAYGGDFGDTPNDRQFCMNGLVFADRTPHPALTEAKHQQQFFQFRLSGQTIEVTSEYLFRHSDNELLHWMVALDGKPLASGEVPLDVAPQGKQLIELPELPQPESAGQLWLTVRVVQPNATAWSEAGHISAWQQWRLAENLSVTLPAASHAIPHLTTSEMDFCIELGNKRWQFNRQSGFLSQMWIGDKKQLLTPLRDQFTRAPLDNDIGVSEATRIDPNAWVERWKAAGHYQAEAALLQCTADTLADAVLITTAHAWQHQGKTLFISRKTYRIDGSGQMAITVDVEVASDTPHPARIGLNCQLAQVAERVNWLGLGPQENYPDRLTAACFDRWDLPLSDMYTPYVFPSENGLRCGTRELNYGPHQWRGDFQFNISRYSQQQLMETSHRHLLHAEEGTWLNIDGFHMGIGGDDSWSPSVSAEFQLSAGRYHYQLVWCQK
In assay [9] the target is T3, Beta-galactosidase (Bos taurus) (UniProt Q58D55).
T3 sequence (whole entry): T1 sequence (Q58D55 whole entry)
Nature of the assay: Percentage inhibition of Beta-galactosidase from Bovine liver at 1 mM concentration.

The target in assay [10] is T4, Beta-glucosidase A (Caldicellulosiruptor saccharolyticus, UniProt P10482). The experiment in a line: Inhibitory activity towards Beta-Glucosidase from Caldocellum saccharol.
T4 sequence (P10482 whole entry): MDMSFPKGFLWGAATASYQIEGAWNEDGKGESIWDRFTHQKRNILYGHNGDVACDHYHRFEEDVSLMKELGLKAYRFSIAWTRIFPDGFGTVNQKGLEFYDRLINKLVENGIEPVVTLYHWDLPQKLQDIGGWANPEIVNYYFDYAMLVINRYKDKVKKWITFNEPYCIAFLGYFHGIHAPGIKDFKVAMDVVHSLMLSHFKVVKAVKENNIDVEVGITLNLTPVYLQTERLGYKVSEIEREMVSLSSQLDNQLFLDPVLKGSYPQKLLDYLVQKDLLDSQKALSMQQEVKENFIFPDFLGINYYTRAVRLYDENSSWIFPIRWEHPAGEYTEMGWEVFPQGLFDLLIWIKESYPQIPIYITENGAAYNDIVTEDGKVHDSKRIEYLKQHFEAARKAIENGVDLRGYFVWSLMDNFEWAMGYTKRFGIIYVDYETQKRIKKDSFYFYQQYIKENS
Assay [11] concerns Saccharomyces cerevisiae. The experiment in a line: Percentage inhibition of Alpha-glucosidase from Baker yeast (isomaltase) at 1 mM.
The target in assay [12] is T4, Beta-glucosidase A. The experiment in a line: Inhibitory activity towards Beta-Glucosidase from Caldocellum saccharol.
Assay [13] addresses Beta-glucosidase A (Caldicellulosiruptor saccharolyticus) (UniProt P10482). The experiment in a line: Percentage inhibition of Beta-Glucosidase from Caldocellum saccharol. at 1 mM.
For assay [14], the target named is Glucoamylase (Aspergillus niger) (UniProt P69328). Nature of the assay: Percentage inhibition of Alpha-glucosidase from Aspergillus niger (amyloglucosidase) at 1 mM; No inhibition.
Glucoamylase (Aspergillus niger), sequence (P69328 whole entry): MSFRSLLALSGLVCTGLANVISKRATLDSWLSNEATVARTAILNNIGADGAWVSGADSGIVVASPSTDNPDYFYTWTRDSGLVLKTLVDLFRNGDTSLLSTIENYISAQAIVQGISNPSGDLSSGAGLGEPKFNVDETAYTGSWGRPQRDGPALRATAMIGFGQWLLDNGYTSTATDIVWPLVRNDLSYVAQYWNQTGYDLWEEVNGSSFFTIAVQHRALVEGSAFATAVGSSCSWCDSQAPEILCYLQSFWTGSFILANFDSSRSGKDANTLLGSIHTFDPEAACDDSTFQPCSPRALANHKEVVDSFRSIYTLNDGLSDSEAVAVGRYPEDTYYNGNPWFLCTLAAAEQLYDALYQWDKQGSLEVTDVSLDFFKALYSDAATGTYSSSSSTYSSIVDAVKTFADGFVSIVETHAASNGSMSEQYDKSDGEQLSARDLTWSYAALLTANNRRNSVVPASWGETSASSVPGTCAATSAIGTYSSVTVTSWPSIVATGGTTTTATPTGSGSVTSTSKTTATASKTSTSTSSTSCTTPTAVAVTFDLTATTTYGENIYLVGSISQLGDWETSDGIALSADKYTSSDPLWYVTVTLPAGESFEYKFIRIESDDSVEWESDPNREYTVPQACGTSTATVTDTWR
Assay [15] has as its target T5, Glucoamylase 1 (Rhizopus oryzae) (UniProt P07683).
T5 sequence (whole entry): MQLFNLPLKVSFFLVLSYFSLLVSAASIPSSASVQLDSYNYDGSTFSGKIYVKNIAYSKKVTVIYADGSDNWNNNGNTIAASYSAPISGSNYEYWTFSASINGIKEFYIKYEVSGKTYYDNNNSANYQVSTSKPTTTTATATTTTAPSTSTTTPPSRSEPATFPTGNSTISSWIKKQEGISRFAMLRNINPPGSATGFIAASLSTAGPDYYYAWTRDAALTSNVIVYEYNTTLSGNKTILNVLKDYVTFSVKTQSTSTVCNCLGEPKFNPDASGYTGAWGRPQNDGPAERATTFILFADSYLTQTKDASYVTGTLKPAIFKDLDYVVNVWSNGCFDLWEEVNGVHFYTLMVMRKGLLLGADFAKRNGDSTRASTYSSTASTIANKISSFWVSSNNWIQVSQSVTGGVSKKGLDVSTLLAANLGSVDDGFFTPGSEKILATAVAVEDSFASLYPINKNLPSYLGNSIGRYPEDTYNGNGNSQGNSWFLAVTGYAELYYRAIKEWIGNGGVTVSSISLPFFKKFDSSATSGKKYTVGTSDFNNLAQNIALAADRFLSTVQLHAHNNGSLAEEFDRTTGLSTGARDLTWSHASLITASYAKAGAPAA
Nature of the assay: Percentage inhibition of Alpha-glucosidase from Rhizopus mold (amyloglucosidase) at 1 mM concentration; No inhibition. As to conditions: Rhizopus arrhizus.

Structures are written as SMILES. Active and inactive are the calls of the source. The calls are words filed in the database; no cut-off is given here.

Beta-glucosidase A (Caldicellulosiruptor saccharolyticus), sequence (P10482 whole entry): as the sequence (P10482 whole entry) above

Consider `OC1CNC(CNCC2CCN(Cc3ccccc3)CC2)C1O` (configuration not stated), for which the inhibition in assay [1] was 26%; in the assay on Saccharomyces cerevisiae [3] it was 55%; in [4], 59%; in assay [8], 39%; in assay [9] it was 53%; in the assay on Saccharomyces cerevisiae [11] it was 90%. The compound also gave an inhibition in assay [13] of 76%. Moreover, the 50% inhibitory concentration (IC50) in assay [2] is 120 µM; on Beta-galactosidase it was 770 µM; in assay [7], 610 µM; at Beta-glucosidase A [10], 290 µM. Also, the inhibition constant (Ki) came out at 40 µM in assay [2] and 120 µM at Beta-glucosidase A [12]. Further, the inhibition result in assay [5], in assay [6], in assay [14] and in [15] was “inactive” throughout.
